For test [1] the following is noted: product of ET-1 cleavage by CathA in vitro; ref [13], [14]; cited from earlier work. An excerpt:
The bioavailability and potency of AII and ET-1 can be regulated through many factors such as alteration of receptor density and affinity, up- and down-regulation of peptide synthesis or release, enzymatic activation (ACE and ACE2 for AII, ECE and MMP-2 for ET-1 [8]), or degradation (neutral endopeptidase NEP for ET-1 [9]–[11]). Previously we have shown that circulating ET-1 is inactivated by lysosomal carboxypeptidase, cathepsin A (CathA) widely distributed in mammalian tissues (reviewed in [12]). The majority of CathA in the cell is found in the lysosome but significant pool of the e ...

A further test has as its system mesenteric arteries. The test can be described thus: Vessel reactivity ex vivo. Set-up: species or system mouse. Particulars: isolated mesenteric arteries; WT, Scpep1^−/−, CathA^S190A, DD; drugs added extraluminally. As to the method: Vessel reactivity ex vivo was analyzed as described, [40]. Briefly, male mice were sacrificed at five months and their mesenteric arteries were isolated and mounted onto glass capillaries in an artereograph chamber filled with cold oxygenated Krebs solution (118.6 mM NaCl, 4.7 mM KCl, 1.2 mM KH2PO4, 1.2 mM MgSO4, 25.1 mM NaHCO3, 26 µM EDTA, 0.18% glucose, 2.5 mM CaCl2). The arteries were constantly perfused intraluminally with Krebs solution at 30 mmHg. After 45 minutes of equilibration vascular reactivity was measured in response to Norepinephrine (Sigma A-0937, 10^−9–10^−5 M), Acetylcholine (Sigma A-6625, 10^−9–10^−4 M), Sodium Nitroprusside (Calbiochem 56538, 10^−9–10^−4 M), Endothelin-1 (American Peptide Company 88-1-10, 10^−11–10^−8 M) and AI, (American Peptide Company 12-1-10, 10^−8–10^−4 M). Drugs were added extraluminally with a 30 min washout period in between each drug, during which the arteries were able to re-equilibrate to a baseline. To test vasodilatation arteries were pre-contracted with NE to 70% of their equilibration diameter. At least 3 concentration response curves were conducted for each vessel and at least 6 animals were studied for each genotype.

Another test relates to rats. Particulars: induced by monocrotaline in rats; ref [33]; cited from earlier work. From the text: The anti-hypertensive effect of retinoic acid tre ...
The test system of test [2] is MLC-2 phosphorylation in AVSMC (ETR-A, ETR-B). The test can be described thus: Myosin light chain 2 phosphorylation by Western blot. Format: cell-based, mouse. Particulars: WT AVSMC, 30 min pre-treatment with 2 µM antagonist, then 5 min 100 nM ET-1, 3 independent experiments. An excerpt:
To verify at the molecular level if AVSMC from CathA^S190A/Scpep1^−/− mice have increased reactivity to ET-1, we studied intracellular signalling events in these cells in response to ET-1. ET-1 interacts with G-protein-associated endothelin type A (ETR-A) and type B (ETR-B) receptors on the surface of AVSMC. Activation of the receptors induces phospholipase C and increases the intracellular Ca^2+ level leading to activation of myosin light chain kinase that phosphorylates myosin light chain (MLC) [21]–[24]. This causes contraction of myosin filaments and shrinkage of the cells. We therefore, compared the level of MLC phosphorylation in AVSMC before or after treatment with ET-1 for the 4 strains of mice. AVSMC cultured overnight in serum-free medium were treated with or without 100 nM ET-1, harvested and analyzed by Western blot using antibodies against MLC-2 phosphorylated at Thr^18 and Ser^19 residues or against total MLC protein.
Figure 5 Cultured AVSMC from mice with combined CathA/Scpep1 deficiency show increased reactivity to ET-1. […] Total protein extracts were analyzed by Western blotting using antibodies specific for phosphorylated (pThr^18/Ser^19-MLC) and total MLC-2 protein. […] Total protein extracts were analyzed by Western blotting using antibodies specific for phosphorylated and total MLC-2 protein. […]
(In general: A western blot detects proteins with antibodies after separation by electrophoresis.)

No end group written: not given here.

Turning to “des-Trp21-endothelin-1 (CSCSSLMDKECVYFCHLDII; ends and bridges not checked; cysteine pairing not given here; UniProt P05305 53-72, looked up, fragment)”, the biological activity result in test [1] is “biologically inactive”. Regarding `NC[C@H](O)c1ccc(O)c(O)c1` [NE, norepinephrine], the “differences in vessel reactivity between the four groups of mice” value with mesenteric arteries is on record as “no differences”. Still for that read-out and setting: as for “angiotensin I (DRVYIHPFHL; Angiotensin-1; UniProt P01019 25-34, looked up) [AI, precursor of vasoconstrictive peptide AII; American Peptide Company 12-1-10]”, the entry is “no differences”. As to `CC1=C(/C=C/C(C)=C/C=C/C(C)=C/C(=O)O)C(C)(C)CCC1` [all-trans retinoic acid], the “effect on pulmonary hypertension” value with rats was “inhibit pulmonary hypertension”. `CC(=O)OCC[N+](C)(C)C` [ACh, acetylcholine]: in the test on mesenteric arteries, the “differences in vessel reactivity between the four groups of mice” value is reported as “no differences”.

With BQ788, in test [2], the “effect on ET-1-induced MLC-2 phosphorylation” value was “blocked”.
